According to patent publication US10729674B2, “Nanoparticle isoflavone compositions and methods of making and using the same” (Humanetics Corporation, priority 2010, dated 2020):
Values after ≈ are worked out from the molar mass of the structure shown. Read-outs that look alike come from different tables or passages of the source.

Key:
[1] = Pharmacokinetics and excretion in Beagle dogs after IV or IM 14C-Genistein (Example 9); format: in vivo; details: for AUC0-inf / AUC0-tlast / Cmax / Extrapolation / ke1 / tlast / Bioavailibility: male Beagle dogs, total radioactivity; for Bioavailibility: Group 2 single IM 20 mg/kg vs IV, from AUC0-tlast
Experimental: (§1) Male Beagle dogs were administered a single IV bolus dose (Group 1, nominal 20 mg/kg) or a single IM dose (Group 2, nominal 20 mg/kg) of 14C-Genistein (results shown in Table 11). The Genistein suspension formulation used was prepared as described in Example 8, Following dosing, the content and concentration of radioactivity in blood, plasma and excreta, and the non-compartmental pharmacokinetics of total radioactivity in whole blood and plasma were determined. The concentration of radioactivity in both dose formulations was measured pre and post dose by liquid scintillation spectroscopy and was similar on both occasions. The radiochemical stability of the test article in both dose formulations was assessed prior to and following the administration of the dose. The mean stability values for pre and post dose samples from the intravenous dose formulation (Group 1) were 100% and 99.6%, respectively. The mean stability values for pre and post dose samples from the intramuscular dose formulation (Group 2) were 99.2% and 98.9%, respectively. Therefore, the ^14C-Genistein in both formulations was considered to have been radiochemically stable throughout the dosing period.
(§2) Whole-blood samples were collected and plasma was obtained by centrifugation. The concentration of radioactivity in whole-blood and plasma was measured by liquid scintillation spectroscopy.

[2] = Pharmacokinetics and excretion in mice after IV or IM 14C-Genistein (Example 8); format: in vivo; details: for Bioavailibility / AUC0-inf / AUC0-tlast / Cmax / Extrapolation / ke1 / tlast: male CD1 mice, total radioactivity; for Bioavailibility: Group 2 single IM 200 mg/kg vs IV; for Excretion recovery: by 168 hours post dose
Experimental: As shown in the results of Table 10, male CD1 mice were administered a single IM dose (Group 2, nominal 200 mg/kg) or a single IV bolus dose (Group 3, nominal 50 mg/kg) of ^14C-Genistein. The genistein formulation used was a suspension formulation that includes genistein suspended in sterile water with 0.2% (w/w) Polysorbate 80 and 5% (w/w) PVP K17. […] Following dosing, the content and concentration of radioactivity in blood, plasma, excreta and carcass, and the non-compartmental pharmacokinetics of total radioactivity in whole blood and plasma were determined, Following dose administration, the extent and severity of any clinical signs was assessed.
as §2

[3] = Radiochemical stability of the test article in dose formulations; format: physicochemical; details: for mean stability value (radiochemical): dog study; for mean radiochemical stability: mouse study
Experimental: The concentration of radioactivity in both dose formulations was measured pre and post dose by liquid scintillation spectroscopy and was similar on both occasions. The radiochemical stability of the test article in both dose formulations was assessed prior to and following the administration of the dose. The mean radiochemical stability of the test article in the dose formulation samples from the intramuscular dose formulation (Group 2) were 98.5% and 98.2%, respectively. The mean radiochemical stability values for pre and post dose samples from the intravenous dose formulation (Group 3) were 98.3% and 98.5%, respectively. Therefore, the ^14C-Genistein in both formulations was considered to have been radiochemically stable throughout the dosing period.
as §1

[4] = Solubility of genistein in vehicles at 25° C.; format: physicochemical
Experimental: Calculated pka's for genistein range from 7-9, with the predicted solubility increasing above pH 7 in accordance with the lowest pKa. The calculated properties were used to design the appropriate pH range for the pH-solubility profile of genistein in several acceptable cosolvents, which was established to be pH 6-9.
The solubility of genistein in water is not detectable at pH 6-7, which implies the solubility is less than 0.02 mg/mL or ˜0.00002 g/g H2O (lowest concentration), Based on the pH-solubility and solubility in cosolvents, it was determined that PEG400 would be the cosolvent to achieve highest solubility. Since parenteral formulations preferably have a maximum of 50% organic component, the addition of Ethanol (EtOH), Nmethylpyrrolidone (NMP) and a surfactant were considered, since these would be expected to enhance absorption from the injection site. Ethanol has the added benefit of reducing viscosity. […] Solubility was further evaluated in two aqueous/organic mixtures with concentrations acceptable for a parenteral dosage form. Additionally, cyclodextrin formulations were evaluated.

[5] = 25° C.; cited from earlier work
[6] = Group 1 single IV bolus 20 mg/kg, blood
[7] = Group 1 single IV bolus 20 mg/kg, plasma
[8] = Group 2 single IM 20 mg/kg, blood
[9] = Group 2 single IM 20 mg/kg, plasma
[10] = Group 2 single IM 200 mg/kg, blood
[11] = Group 2 single IM 200 mg/kg, plasma
[12] = Group 3 single IV bolus 50 mg/kg, blood
[13] = Group 3 single IV bolus 50 mg/kg, plasma

## O=c1c(-c2ccc(O)cc2)coc2cc(O)cc(O)c12 [14C-Genistein]
[1]; dogs, Group 1 IV
  Excretion recovery by 168 hours post dose: approximately 87.9%
[1]; dogs, Group 1 IV bolus 20 mg/kg
  Blood to plasma ratios: less than 1
[1]; dogs, Group 1 IV bolus 20 mg/kg, first time point analyzed
  time post dose of highest mean concentration of radiolabelled material in plasma and whole blood: 15 min
[1]; dogs, Group 2 IM
  Excretion recovery by 168 hours post dose: ~85.8%
[1]; dogs, Group 2 IM 20 mg/kg
  time post dose of highest mean concentration of radioactivity in plasma and whole blood: 2 h
[1]; dogs, Group 2 IM 20 mg/kg, any time post dose
  Blood to plasma ratios: less than 1
[1]; dogs, IV bolus 20 mg/kg and IM 20 mg/kg, considered to be dose-related
  Clinical signs: Clinical signs were observed in both groups
[1]; dogs, both dose routes
  excretion mass balance: greater than 85%
  time within which the majority of the dose administered was excreted: ≤ 48 h
[1]; dogs, both groups
  overall mean excretion mass balance of radioactivity: 86-88 % of the administered dose
[1]; [6]
  AUC0-inf: 122 μg eq · h/mL
  AUC0-tlast: 117 μg eq · h/mL
  Cmax: 40.4 μg eq/mL
  Extrapolation: 16.8%
  ke1: 0.0130 h⁻¹
  tlast: 120 h
[1]; [7]
  AUC0-inf: 227 μg eq · h/mL
  AUC0-tlast: 201 μg eq · h/mL
  Cmax: 94.4 μg eq/mL
  Extrapolation: 11.3%
  ke1: 0.0138 h⁻¹
  tlast: 120 h
[1]; blood
  Bioavailibility: 92.9%
[1]; plasma
  Bioavailibility: 96.1%
[1]; [8]
  AUC0-tlast: 108 μg eq · h/mL
  Cmax: 5.39 μg eq/mL
  tlast: 168 h
[1]; [9]
  AUC0-inf: 228 μg eq · h/mL
  AUC0-tlast: 193 μg eq · h/mL
  Cmax: 10.9 μg eq/mL
  Extrapolation: 15.1%
  ke1: 0.0092 h⁻¹
  tlast: 168 h
[2]; main study male mice, single IM 200 mg/kg or single IV 50 mg/kg
  treatment-related clinical signs: No treatment-related clinical signs were observed
[2]; blood
  Bioavailibility: 49.7%
[2]; plasma
  Bioavailibility: 83.5%
[2]; [10]
  AUC0-inf: 223 μg eq · h/mL
  AUC0-tlast: 222 μg eq · h/mL
  Cmax: 33.3 μg eq/mL
  Extrapolation: 0.663%
  ke1: 0.0242 h⁻¹
  tlast: 168 h
[2]; [11]
  AUC0-inf: 387 μg eq · h/mL
  AUC0-tlast: 375 μg eq · h/mL
  Cmax: 63.1 μg eq/mL
  Extrapolation: 3.18%
  ke1: 0.0145 h⁻¹
  tlast: 168 h
[2]; [12]
  AUC0-inf: 112 μg eq · h/mL
  AUC0-tlast: 99.7 μg eq · h/mL
  Cmax: 60.1 μg eq/mL
  Extrapolation: 11.4%
  ke1: 0.0118 h⁻¹
  tlast: 168 h
[2]; [13]
  AUC0-inf: 116 μg eq · h/mL
  AUC0-tlast: 116 μg eq · h/mL
  Cmax: 108 μg eq/mL
  Extrapolation: 0.191%
  ke1: 0.0307 h⁻¹
  tlast: 168 h
[2]; mice, 200 mg/kg (IM) and 50 mg/kg (IV)
  tolerability of dose level: well tolerated
[2]; mice, Group 2 IM 200 mg/kg, any time post dose
  Blood to plasma ratios: less than 1
[2]; mice, Group 2 IM 200 mg/kg, first time point analyzed
  time post dose of highest mean concentration of radioactivity in plasma and whole blood: 30 min
[2]; mice, Group 2 IM
  Excretion recovery: ~92%
[2]; mice, Group 3 IV 50 mg/kg, 0 to 24 hours
  blood-to-plasma ratios: less than 1
[2]; mice, Group 3 IV 50 mg/kg, first time point analyzed
  time post dose of highest mean concentration of radiolabelled material in plasma and whole blood: 30 min
[2]; mice, Group 3 IV
  Excretion recovery: approximately 93%
[2]; mice, both dose routes
  time within which the majority of the dose administered was excreted: ≤ 24 h
[3]; intramuscular dose formulation (Group 2), post dose
  mean stability value (radiochemical): 98.9%
[3]; intramuscular dose formulation (Group 2), pre dose
  mean stability value (radiochemical): 99.2%
[3]; intravenous dose formulation (Group 1), post dose
  mean stability value (radiochemical): 99.6%
[3]; intravenous dose formulation (Group 1), pre dose
  mean stability value (radiochemical): 100%
[3]; intramuscular dose formulation (Group 2), following dosing
  mean radiochemical stability: 98.2%
[3]; intramuscular dose formulation (Group 2), prior to dosing
  mean radiochemical stability: 98.5%
[3]; intravenous dose formulation (Group 3), post dose
  mean radiochemical stability: 98.5%
[3]; intravenous dose formulation (Group 3), pre dose
  mean radiochemical stability: 98.3%

## O=c1c(-c2ccc(O)cc2)coc2cc(O)cc(O)c12 [Genistein, 5,7-dihydroxy-3-(4-hydroxyphenyl)-chromen-4-one]
[4]; 25 °C, aqueous with cosolvent or surfactant or cyclodextrin, thermodynamic from solid, 30% Hydroxypropyl-β-cyclodextrin, read-out: Solubility of GENISTEIN at 25° C.
  solubility: 6 mg/mL (≈ 22.2 mM)
[4]; 25 °C, aqueous with cosolvent or surfactant or cyclodextrin, thermodynamic from solid, 30% Sulfobutylether-β-cyclodextrin, read-out: Solubility of GENISTEIN at 25° C.
  solubility: 8 mg/mL (≈ 29.6 mM)
[4]; 25 °C, organic solvent or mixture, thermodynamic from solid, Dimethyl acetamide (DMA), read-out: Solubility at 25° C.
  solubility: 141 mg/mL (≈ 523 mM)
[4]; 25 °C, organic solvent or mixture, thermodynamic from solid, Ethanol, read-out: Solubility at 25° C.
  solubility: 25 mg/mL (≈ 92.5 mM)
[4]; 25 °C, organic solvent or mixture, thermodynamic from solid, N-methyl pyrrolidone (NMP), read-out: Solubility at 25° C.
  solubility: 238 mg/mL (≈ 881 mM)
[4]; 25 °C, organic solvent or mixture, thermodynamic from solid, Polyethylene Glycol 300 (PEG300), read-out: Solubility at 25° C.
  solubility: 110 mg/mL (≈ 409 mM)
[4]; 25 °C, organic solvent or mixture, thermodynamic from solid, Polyethylene Glycol 400 (PEG400), read-out: Solubility at 25° C.
  solubility: 115 mg/mL (≈ 426 mM)
[4]; 25 °C, organic solvent or mixture, thermodynamic from solid, Propylene Glycol, read-out: Solubility at 25° C.
  solubility: 6.2 mg/mL (≈ 22.9 mM)
[4]; 25 °C, pH 6, aqueous buffer, thermodynamic from solid, pH 6-7, not detectable, lowest concentration, read-out: solubility in water
  solubility: < 0.02 mg/mL
[4]; 25 °C, pH 7, aqueous with cosolvent or surfactant or cyclodextrin, thermodynamic from solid, 10% Polysorbate 80/10% EtOH/40% PEG400/40% 25 mM Phosphate Buffered Saline (pH 7), read-out: Solubility of GENISTEIN at 25° C.
  solubility: 12 mg/mL (≈ 44.4 mM)
[4]; 25 °C, pH 7, aqueous with cosolvent or surfactant or cyclodextrin, thermodynamic from solid, 10% Polysorbate 80/10% NMP/40% PEG400/40% 25 mM Phosphate Buffered Saline (pH 7), read-out: Solubility of GENISTEIN at 25° C.
  solubility: 19 mg/mL (≈ 70.3 mM)
[4]; 25 °C, pH 7, aqueous with cosolvent or surfactant or cyclodextrin, thermodynamic from solid, 10% Polysorbate 80/40% PEG400/50% 25 mM Phosphate Buffered Saline (pH 7), read-out: Solubility of GENISTEIN at 25° C.
  solubility: 11 mg/mL (≈ 40.7 mM)
[4]; 25 °C, pH 9, aqueous buffer, thermodynamic from solid, Borate buffer pH 9, 7 days
  solubility at 7 days: 0.043 mg/mL (≈ 0.159 mM)
[4]; 25 °C, pH 9, aqueous buffer, thermodynamic from solid, Borate buffer pH 9, 14 days
  solubility at 14 days: 0.005 mg/mL (≈ 0.0185 mM)
[4]; Borate buffer pH 9, 3 days
  Solubility at 25° C.: Not detected
[4]; Citrate buffer pH 6
  Solubility at 25° C.: Not detected
[4]; Phosphate buffer pH 7
  Solubility at 25° C.: Not detected
[4]; TRIS buffer pH 8
  Solubility at 25° C.: Not detected
[4]; pH 6-7, not detectable, lowest concentration
  solubility in water: < 0.00002 g/g H2O
[4]; pH 9
  stability in pH-solubility profile: degradation was observed
[5]
  parts water required to dissolve one part genistein: greater than 50,000 parts water
